Assay results reported in patent US11235020B2, “Methods and compositions for inhibiting glyoxalase 1 (GLO1)” (priority 2013, dated 2022).

Experiments:
[1] = system: GABAA receptors in cerebellar granule neurons; test: Whole-cell patch clamp in cerebellar granule neurons (CGN); type: cell-based, rat
Experimental: (§1) Reagents: All reagents were obtained from Sigma-Aldrich.
Culture of rat CGN: CGN were cultured from mixed-sex Sprague-Dawley rats. Tissue was dissected from 6- to 8-day-old rats. Cells were suspended in minimal essential medium supplemented with 10% fetal calf serum, 26 mM glucose, 19 mM KCl, 2 mM 1-glutamine, and penicillin/streptomycin (50 IU/ml and 50 μg/ml). Cells were seeded on poly-1-lysine-coated coverslips and incubated in a humidified atmosphere containing 5% CO2 at 37° C. After 48 hours, the culture medium was replaced with minimal essential medium supplemented with 10% horse serum, 26 mM glucose, 19 mM KCl, 2 mM 1-glutamine, penicillin/streptomycin (50 IU/ml and 50 μg/ml), and 80 μM 1-fluorodeoxyuridine. Culture medium was exchanged every three days. All recordings were made from cells between days 6 to 9 in culture.
(§2) Filter and sampling frequencies were 5 and 25 kHz, respectively, for voltage-clamp experiments and 1 and 10 kHz, respectively, for current-clamp recording. Experiments were performed at 32° C. using a feedback-controlled heated perfusion system (Warner Instruments). Vm, ligand-gated currents, and potassium channel currents were studied in a bath solution containing 1 mM CaCl2, 1 mM MgCl2, 4 mM KCl, 140 mM NaCl, 5 mM glucose, and 10 mM HEPES (pH 7.4). […] Electrodes were coated with Sigmacote (Sigma) prior to use.
(§3) Ligand-gated currents: Ligand-gated currents were studied in voltage-clamp mode by application of reagents to cells held at −50 mV.

[2] = system: GABAA receptors in macropatches excised from CGN; test: Macropatch recording from CGN; type: cell-based, rat; conditions: 10 μM; SR 10 μM at the extracellular face (pipette)
Experimental: Macropatch recording: Macropatch recording was performed with 1.5-2 MΩ electrodes filled with bath solution. The inside of excised patches was perfused with electrode solution containing the indicated reagents. SR was added to the electrode where indicated.

[3] = system: depression-like behavior in mice; test: Chronic forced swim test (cFST), osmotic minipump; type: in vivo, mouse; conditions: fluoxetine 18 mg/kg/day, 14 days
Experimental: To fully assess the therapeutic potential of GLO1 inhibitors, it is necessary to utilize behavioral models sensitive to chronic administration. These models are highly informative as the therapeutic onset of antidepressant action mimics clinical onset in humans. pBBG was administered by osmotic minipumps (Alzet) for 14 days at various doses (0, 5, 10, 15, 30 and 60 mg/kg/day) to establish a dose response curve. Osmotic minipumps are ideal for chronic treatment as they release a constant volume at a very slow rate minimizing the stress of multiple injections.

[4] = system: anxiety-like behavior and locomotion in mice; test: Open field (OF) test; type: in vivo, mouse; conditions: B6 mice
Experimental: OF test: Mice were placed into the center of the OF, and activity was monitored for five to ten minutes. The apparatus was illuminated to approximately 40 lux. Data were collected and processed using the manufacturer's software (AccuScan Instruments).
OF test: Ten minutes post-injection, mice were placed into the center of the OF. The apparatus was illuminated to approximately 40 lux. Behavior was measured as described above.
OF test replication studies: Ten to twenty minutes post-injection, mice were tested in the OF for five to ten minutes. In some experiments, behavior was scored as described above. In other experiments, mice were tested in the OF, and behavior was automatically scored by the Noldus Ethovision System. For mice tested in the Noldus system, the apparatus was illuminated to approximately 1,000 lux.
Chronic MG administration: For five days, mice were injected twice daily with vehicle or MG (4 mg/kg). Twelve hours after the final injection, mice were tested in the OF as described above.
Pure MG: Pure MG was obtained from Dr. John Termini at the City of Hope, Duarte, Calif. It was administered at the indicated doses by i.p. injection. Mice were tested as described above.
OF test: Two hours post-injection, mice were tested in the OF test as described above. The center size was 10×10 cm. The apparatus was illuminated to approximately 40 lux.

mice = test: Hypothermia (rectal temperature); type: in vivo, mouse; conditions: 300 mg/kg i.p., B6 mice
Experimental: Hypothermia: Thirty minutes post-injection, rectal temperature was measured with a digital thermometer.

[5] = system: motor coordination in mice; test: Balance beam test; type: in vivo, mouse; conditions: 300 mg/kg i.p., B6 mice
Experimental: The balance beam was 97 cm×9.5 mm and elevated to 46 cm. Mice were tested on the balance beam, and missteps were counted.
Balance beam: The balance beam test was performed as described above. Ten minutes post-injection, mice were tested on the balance beam, and missteps were recorded.

locomotion in Cd-1 mice = test: Open field test after i.p. glyceraldehyde; type: in vivo, mouse; conditions: GA i.p., tested 10 min after injection
Experimental: GA is rapidly converted into MG. Cd-1 mice (Charles River, Portage Mich.) were treated i.p. With vehicle (0.9% NaCl) or GA at the indicated doses. Ten minutes after injection, mice were tested in the open field (OF) test (locomotor chambers). Behavioral data were collected at 5 and 10 minutes. Because vehicle-treated mice differed in total distance traveled between the testing days, the data were not combined into a single analysis. Statistical analyses included repeated-measures anova for the factor treatment. The repeated measures were total distance (at 5 and 10 min) and % center time (at 5 and 10 min). For comparison of vehicle and GA at individual time points, a t-test was used. […] This would be an additional means of obtaining desirable clinical effects, including anxiolytic, antidepressant, anti-epileptic, and induction of sleep.

[6] = system: GABAA receptors in hippocampal neurons; test: Whole-cell patch clamp in hippocampal neurons (HN); type: cell-based, rat; conditions: for increase of GABA-evoked currents: 500 nM modulator co-applied with 10 μM GABA; for increase of MG-evoked currents: 500 nM modulator co-applied with 10 μM MG
Experimental: as §1
Neurons were maintained in neurobasal medium with B27 supplement and glutamax in a humidified atmosphere with 5% CO2 at 37° C.
as §2, §3

[7] = system: anxiety-like behavior in C57BL6/J mice; test: OFT after bilateral microinjection into the basolateral amygdala (BLA); conditions: midazolam 4 mM, 0.5 ul bilateral into BLA, over 30 m

Br.COc1ccc(-c2ccc(=N)n(CCCC(=O)O)n2)cc1 [SR, reference compound]
inhibition of Vm changes induced by MG and GABA ([1]; 10 μM SR, 10 μM MG or GABA): > 95%
inhibition of current-density changes induced by MG and GABA ([1]; 10 μM SR, 10 μM MG or GABA): > 95%
current on application to the intracellular face of macropatches [2]: this current was inhibited when SR was applied to the extracellular face

CNCCC(Oc1ccc(C(F)(F)F)cc1)c1ccccc1 (stereo not drawn) [fluoxetine]
depression-like behavior in the cFST [3]: reduces depression-like behavior in the forced swim test

NCCCC(=O)O [GABA, gamma-aminobutyric acid, reference compound]
current on application to the intracellular face of macropatches [2]: did not elicit a current

CC(=O)C=O [pure MG, methylglyoxal]
inward currents in CGN ([1]; 10 μM): evoked inward currents in CGN
time in the center of the OF ([4]; pure MG 5 mg/kg, 10 min later): increased time in the center of the OF
total distance traveled in the OF ([4]; pure MG 300 mg/kg): reduced total distance traveled in the OF
hypothermia (mice): caused hypothermia
footslips on the balance beam (ataxia) [5]: increased footslips on the balance beam

O=CC(O)CO (stereo not drawn) [GA, glyceraldehyde]
locomotor effect in the open field (locomotion in Cd-1 mice): has locomotor depressant effects

Cc1ccc(-c2nc3ccc(C)cn3c2CC(=O)N(C)C)cc1 [zolpidem]
increase of GABA-evoked currents [6]: approximately 17%
increase of MG-evoked currents [6]: approximately 15%

Cc1ncc2n1-c1ccc(Cl)cc1C(c1ccccc1F)=NC2 [midazolam]
center duration in the OFT [7]: increased center duration in the OFT
increase of GABA-evoked currents [6]: approximately 27%
increase of MG-evoked currents [6]: approximately 40%

CN1C(=O)CN=C(c2ccccc2)c2cc(Cl)ccc21 [Diazepam, diazepam]
increase of GABA-evoked currents [6]: approximately 45%
increase of MG-evoked currents [6]: approximately 60%
